The subject of test [1] is HeLa. Kind of test: Compound was tested at concentration of 280 nM for HeLa cell cycle inhibition; arrest of G2/M phase. Type of test: functional, cell-based. As to conditions: Homo sapiens.
The test system of test [2] is HeLa. The test can be described thus: Compound was tested at concentration of 28 nM for HeLa cell cycle inhibition; arrest of G1 phase. Type of test: functional, cell-based. Conditions: Homo sapiens.

Regarding `O=C1NC(=O)c2c1c1c3ccc(O)cc3[nH]c1c1[nH]c3cc(O)ccc3c21`, the Concentration with HeLa [1] worked out at 100 ng/mL; in the test with HeLa [2], 10 ng/mL.

The values above are taken from ChEMBL document CHEMBL1136180, “Isolation of bisindole alkaloids that inhibit the cell cycle from Myxomycetes Arcyria ferruginea and Tubifera casparyi” (Bioorg Med Chem Lett, 2003).
